Test results from patent US20250122173A1, “MODULATORS OF RHO-ASSOCIATED PROTEIN KINASE” (Redx Pharma Limited, priority 2022, published 2025).

How the values were obtained:
ROCK2 = biological target: T1, ROCK2 (Homo sapiens, UniProt O75116); experiment: ROCK2 inhibition assay (ADP-Glo kinase assay, called ROCK2 binding activity); type: biochemical; details: 20 μM ATP, 1 hour pre-incubation, read-out: ROCK 2 (IC50 category)
T1 construct: N-terminal 6His-tagged ROCK2 catalytic domain 11-552; 6His (N); purchased Dundee University, UK; host or cells: baculovirus expression system
Procedure: ROCK2 Binding Activity: Assay for ROCK2 inhibition was performed using the protein construct N-terminal 6His-tagged ROCK2 catalytic domain 11-552 (Dundee University, UK). Protein was purified from a baculovirus expression system. Long S6 peptide ([…]) was used as substrate. Kinase reactions were carried out in 15 μl volume in a 96-well plate (black, half area) using 1.25 nM constitutively active ROCK2 kinase, 100 μM long S6 peptide, 20 μM ATP and test compound in DMSO (or DMSO only for controls). The final concentration of DMSO was 1%. Assay buffer was 50 mM HEPES pH 7.5 supplemented with 0.2 mM EDTA, 10 mM magnesium acetate, 0.01% Tween-20, 1 mM DTT and 0.01% BSA. Test compounds were pre-incubated with ROCK2 kinase for 1 hour before addition of ATP and long S6 peptide. After incubation for a further 1 hour, the amount of ADP produced was measured using ADP-Glo Kinase Assay (Promega) as per manufacturer's instructions. The luminescence was measured on a PHERAstar FS (BMG Labtech). The concentration of test compound required to inhibit ADP production by 50% (the IC50) was calculated using a four-parameter logistic function with software by Dotmatics. […] The category “+” refers to compounds with a ROCK2 or ROCK1 IC50 value of >10 μM. The category “++” refers to compounds with a ROCK2 or ROCK1 IC50 value of 10 to 3 μM. The category “+++” refers to compounds with a ROCK1 or ROCK2 IC50 value of 3 to 0.3 μM. The category “++++” refers to compounds with a ROCK1 or ROCK2 IC50 value of <0.3 μM.

ROCK1 = ROCK1 (Homo sapiens, UniProt Q13464); experiment: ROCK1 inhibition assay (ROCK1 binding activity, as determined by the assay described for ROCK2); type: biochemical; details: read-out: ROCK 1 (IC50 category)
Procedure: Assay for ROCK2 inhibition was performed using the protein construct N-terminal 6His-tagged ROCK2 catalytic domain 11-552 (Dundee University, UK). Protein was purified from a baculovirus expression system. Long S6 peptide ([…]) was used as substrate. Kinase reactions were carried out in 15 μl volume in a 96-well plate (black, half area) using 1.25 nM constitutively active ROCK2 kinase, 100 μM long S6 peptide, 20 μM ATP and test compound in DMSO (or DMSO only for controls). The final concentration of DMSO was 1%. Assay buffer was 50 mM HEPES pH 7.5 supplemented with 0.2 mM EDTA, 10 mM magnesium acetate, 0.01% Tween-20, 1 mM DTT and 0.01% BSA. Test compounds were pre-incubated with ROCK2 kinase for 1 hour before addition of ATP and long S6 peptide. After incubation for a further 1 hour, the amount of ADP produced was measured using ADP-Glo Kinase Assay (Promega) as per manufacturer's instructions. The luminescence was measured on a PHERAstar FS (BMG Labtech). The concentration of test compound required to inhibit ADP production by 50% (the IC50) was calculated using a four-parameter logistic function with software by Dotmatics. […] The category “+” refers to compounds with a ROCK2 or ROCK1 IC50 value of >10 μM. The category “++” refers to compounds with a ROCK2 or ROCK1 IC50 value of 10 to 3 μM. The category “+++” refers to compounds with a ROCK1 or ROCK2 IC50 value of 3 to 0.3 μM. The category “++++” refers to compounds with a ROCK1 or ROCK2 IC50 value of <0.3 μM.

ROCK1, sequence (Q13464 whole entry, the tested form may be a part): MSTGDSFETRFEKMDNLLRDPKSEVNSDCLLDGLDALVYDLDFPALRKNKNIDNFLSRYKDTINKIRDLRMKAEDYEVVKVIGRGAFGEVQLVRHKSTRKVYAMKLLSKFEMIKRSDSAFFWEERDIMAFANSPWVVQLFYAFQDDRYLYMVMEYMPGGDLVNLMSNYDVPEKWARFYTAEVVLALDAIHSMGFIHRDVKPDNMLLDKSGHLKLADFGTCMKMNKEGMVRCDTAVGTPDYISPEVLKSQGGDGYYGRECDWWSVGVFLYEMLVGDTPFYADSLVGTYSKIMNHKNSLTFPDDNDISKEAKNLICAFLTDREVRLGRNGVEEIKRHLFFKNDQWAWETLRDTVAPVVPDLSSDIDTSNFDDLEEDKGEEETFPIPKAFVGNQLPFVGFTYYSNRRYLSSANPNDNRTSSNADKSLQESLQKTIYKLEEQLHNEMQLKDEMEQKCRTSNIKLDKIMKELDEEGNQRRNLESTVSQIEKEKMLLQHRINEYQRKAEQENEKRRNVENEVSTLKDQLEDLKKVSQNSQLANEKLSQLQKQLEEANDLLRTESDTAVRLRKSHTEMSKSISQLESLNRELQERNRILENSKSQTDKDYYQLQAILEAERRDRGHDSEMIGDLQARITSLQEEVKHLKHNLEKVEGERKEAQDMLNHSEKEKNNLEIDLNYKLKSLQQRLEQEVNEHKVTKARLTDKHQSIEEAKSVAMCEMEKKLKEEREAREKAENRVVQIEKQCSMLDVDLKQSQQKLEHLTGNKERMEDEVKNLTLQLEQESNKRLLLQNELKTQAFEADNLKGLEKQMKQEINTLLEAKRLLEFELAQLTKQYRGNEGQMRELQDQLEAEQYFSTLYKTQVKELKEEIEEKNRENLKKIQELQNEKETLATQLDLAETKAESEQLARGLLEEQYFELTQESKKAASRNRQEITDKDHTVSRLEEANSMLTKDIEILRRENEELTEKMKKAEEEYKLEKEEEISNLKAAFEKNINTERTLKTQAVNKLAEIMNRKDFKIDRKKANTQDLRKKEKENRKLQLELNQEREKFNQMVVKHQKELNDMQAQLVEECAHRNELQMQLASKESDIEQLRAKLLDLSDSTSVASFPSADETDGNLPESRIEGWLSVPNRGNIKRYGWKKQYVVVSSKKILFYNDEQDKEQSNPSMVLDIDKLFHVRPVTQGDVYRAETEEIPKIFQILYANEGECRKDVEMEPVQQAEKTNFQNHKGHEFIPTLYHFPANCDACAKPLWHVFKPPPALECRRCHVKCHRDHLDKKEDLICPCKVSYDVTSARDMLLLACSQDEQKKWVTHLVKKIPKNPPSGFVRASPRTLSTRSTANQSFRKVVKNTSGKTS
T1 sequence (O75116 11-552): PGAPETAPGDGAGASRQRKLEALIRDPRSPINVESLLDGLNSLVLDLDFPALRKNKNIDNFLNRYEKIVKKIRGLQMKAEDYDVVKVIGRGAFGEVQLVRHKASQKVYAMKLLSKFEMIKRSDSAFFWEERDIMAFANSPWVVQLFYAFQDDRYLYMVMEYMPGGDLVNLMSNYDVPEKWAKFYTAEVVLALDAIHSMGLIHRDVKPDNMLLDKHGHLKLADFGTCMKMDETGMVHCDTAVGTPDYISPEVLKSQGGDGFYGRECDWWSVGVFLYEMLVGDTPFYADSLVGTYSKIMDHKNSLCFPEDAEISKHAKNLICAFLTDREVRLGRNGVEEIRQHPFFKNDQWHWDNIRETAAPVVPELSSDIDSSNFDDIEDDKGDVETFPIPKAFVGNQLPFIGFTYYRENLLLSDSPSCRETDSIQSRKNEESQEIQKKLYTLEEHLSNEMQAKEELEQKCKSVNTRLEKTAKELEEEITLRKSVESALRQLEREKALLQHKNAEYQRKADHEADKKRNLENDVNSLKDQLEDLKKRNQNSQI

Structure (SMILES) | IC50 (ROCK2) [µM] | IC50 (ROCK1) [µM]
CCn1nc(-c2ccc(C3CCN(C)CC3)cc2C)nc1Nc1cc2c(cc1C)C(=O)NC2C (stereo not drawn) [Example 128] | > 10 | > 10
CCn1nc(-c2ccc(C3CCCN(CC(F)(F)F)C3)c(C)c2)nc1Nc1cc2c(cc1C)C(=O)NC2C (stereo not drawn) [Example 147] | 0.3 to 3 | > 10
CCn1nc(-c2ccc(C3=CCNCC3)cc2)nc1Nc1ccc2c(c1)CNC2=O [Example 67] | 3 to 10 | 3 to 10
CCn1nc(-c2ccc(-c3nc(C)ccc3C)c(C)c2)nc1Nc1cc2c(cc1C)C(=O)NC2C (stereo not drawn) [Example 107] | 3 to 10 | > 10
CCn1nc(-c2ccc(C3=CCN(C)CC3)cc2)nc1Nc1cc2c(cc1C)C(=O)NC2C (stereo not drawn) [Example 116] | 3 to 10 | > 10
CCn1nc(-c2ccc(C3CCN(C)CC3)c(C)c2)nc1Nc1cc2c(cc1C)C(=O)NC2C (stereo not drawn) [Example 144] | > 10 | > 10
CCn1nc(-c2ccc(C3CCNCC3)cc2)nc1Nc1ccc2c(c1)CNC2=O [Example 54] | 3 to 10 | > 10
CCn1nc(-c2ccc(C3CCNCC3)c(C)c2)nc1Nc1cc2c(cc1C)C(=O)NC2C (stereo not drawn) [Example 141] | 3 to 10 | > 10
CCn1nc(-c2ccc(-n3cc(C4CC4)nc3C)cc2)nc1Nc1ccc2c(c1)C(C)(C)NC2=O [Example 18] | 3 to 10 | > 10
CCn1nc(-c2ccc(-c3ccc(C)cn3)c(C)c2)nc1Nc1cc2c(cc1C)C(=O)NC2C (stereo not drawn) [Example 89] | < 0.3 | > 10
CCn1nc(-c2ccc(-c3ccc(C)nc3)cc2)nc1Nc1cnc2c(c1)CNC2=O [Example 46] | 0.3 to 3 | > 10
CCn1nc(-c2ccc(-c3ccc(C)c(C)n3)c(C)c2)nc1Nc1cc2c(cc1C)C(=O)NC2C (stereo not drawn) [Example 100] | < 0.3 | > 10
CCn1nc(-c2ccc(-c3ccc(C)cn3)c(C)c2)nc1Nc1ccc2c(c1)C(C)NC2=O (stereo not drawn) [Example 53] | < 0.3 | > 10
Cn1nc(-c2ccc(-n3cnc(C4CC4)c3)cc2)nc1Nc1ccc2c(c1)CNC2=O [Example 14] | < 0.3 | > 10
CCn1nc(-c2ccc(-c3cnn(CC(F)(F)F)c3)cc2)nc1Nc1cc2c(cc1C)C(=O)N[C@H]2C [Example 162] | < 0.3 | 3 to 10
CCn1nc(-c2cc(C)c(-c3ccc(C)cn3)cc2C)nc1Nc1cc2c(cc1C)C(=O)NC2C (stereo not drawn) [Example 95] | < 0.3 | > 10
CCn1nc(-c2ccc(C3CCN(CC(F)(F)F)CC3)cc2C)nc1Nc1cc2c(cc1C)C(=O)NC2C (stereo not drawn) [Example 131] | < 0.3 | > 10
CCn1nc(-c2ccc(-c3ccc(C4CC4)nc3)cc2)nc1Nc1ccc2c(c1)C1(CC1)NC2=O [Example 55] | < 0.3 | > 10
Cn1nc(-c2ccc(C(=O)NCC(F)F)cc2)nc1Nc1ccc2c(c1)CNC2=O [Example 7] | 3 to 10 | > 10
CCn1nc(-c2ccc(-c3ccc(C4CC4)nc3)cc2)nc1Nc1cc2c(cc1F)C(=O)NC2C (stereo not drawn) [Example 130] | < 0.3 | 3 to 10

More lines, now with the values ahead:

IC50 (ROCK2) [µM] | IC50 (ROCK1) [µM] | Structure (SMILES)
< 0.3 | 0.3 to 3 | CCn1nc(-c2ccc(-c3ccc(C(C)(C)O)nc3)cc2)nc1Nc1cc2c(cc1C)C(=O)NC2C (stereo not drawn) [Example 157]
< 0.3 | 3 to 10 | CCn1nc(-c2ccc(-n3cnc(C4CC4)c3)c(F)c2)nc1Nc1ccc2c(c1)C(C)NC2=O (stereo not drawn) [Example 86]
< 0.3 | 3 to 10 | CCn1nc(-c2ccc(-c3ccc(C4CC4)nc3)cc2)nc1Nc1ccc2c(c1)CNC2=O [Example 20]
< 0.3 | 3 to 10 | CCn1nc(-c2ccc(-c3cc(C)cc(C)n3)c(C)c2)nc1Nc1cc2c(cc1C)C(=O)NC2C (stereo not drawn) [Example 101]
< 0.3 | < 0.3 | CCn1nc(-c2ccc(-c3cnc(C)c(C)c3)cc2)nc1Nc1ccc2c(c1)CNC2=O [Example 42]
< 0.3 | > 10 | CCn1nc(-c2ccc(-c3ccc(C4CC4)cn3)c(C)c2)nc1Nc1ccc2c(c1)C(C)NC2=O (stereo not drawn) [Example 112]
< 0.3 | 3 to 10 | CCn1nc(-c2ccc(-c3ccc(C)nc3)cc2)nc1Nc1cc2c(cc1C)C(=O)NC2C (stereo not drawn) [Example 41]
< 0.3 | > 10 | Cc1cn(-c2ccc(-c3nc(Nc4ccc5c(c4)CNC5=O)n(C)n3)cc2)cn1 [Example 1]
< 0.3 | 3 to 10 | CCn1nc(-c2cc(C)c(-c3cn(C)c(C4CC4)n3)cc2F)nc1Nc1ccc2c(c1)C(C)NC2=O (stereo not drawn) [Example 113]
< 0.3 | 3 to 10 | CCn1nc(-c2ccc(-c3ccc(C)cn3)cc2)nc1Nc1cc2c(cc1C)C(=O)NC2C (stereo not drawn) [Example 104]
< 0.3 | 3 to 10 | CCn1nc(-c2ccc(-n3cnc(C4CC4)c3)cc2)nc1Nc1cc2c(cc1C)C(=O)NC2C (stereo not drawn) [Example 45]
< 0.3 | > 10 | Cc1nc(C2CC2)cn1-c1ccc(-c2nc(Nc3ccc4c(c3)CNC4=O)n(C)n2)cc1 [Example 3]
< 0.3 | 3 to 10 | CCn1nc(-c2ccc(-c3ccn(C)c3)cc2)nc1Nc1cc2c(cc1C)C(=O)NC2C (stereo not drawn) [Example 136]
< 0.3 | 3 to 10 | CCn1nc(-c2ccc(-c3ccc(C)nc3)c(C)c2)nc1Nc1cc2c(cc1C)C(=O)NC2C (stereo not drawn) [Example 75]
< 0.3 | > 10 | CCn1nc(-c2cc(C)c(-c3ccc(C)cn3)cc2F)nc1Nc1cc2c(cc1C)C(=O)NC2C (stereo not drawn) [Example 120]
< 0.3 | 3 to 10 | CCn1nc(-c2cc(C)c(-c3ccc(C4CC4)nc3)cc2F)nc1Nc1cc2c(cc1C)C(=O)NC2C (stereo not drawn) [Example 94]
< 0.3 | 3 to 10 | CCn1nc(-c2ccc(-c3ccc(C)nc3)cc2)nc1Nc1ccc2c(c1)CNC2=O [Example 15]
< 0.3 | > 10 | CCn1nc(-c2ccc(-c3ccc(C4CC4)nc3)c(C)c2)nc1Nc1ccc2c(c1)C1(CC1)NC2=O [Example 49]
< 0.3 | > 10 | CCn1nc(-c2ccc(C3CCN(CC(F)(F)F)C3)c(C)c2)nc1Nc1cc2c(cc1C)C(=O)NC2C (stereo not drawn) [Example 138]
< 0.3 | > 10 | CCn1nc(-c2ccc(-c3ccc(C)nc3)c(C)c2)nc1Nc1ccc2c(c1)C1(CC1)NC2=O [Example 51]
< 0.3 | 3 to 10 | CCn1nc(-c2ccc(-c3ccc(C4CC4)nc3)cc2)nc1Nc1cc2c(cc1F)C(=O)N[C@@H]2C [Example 160]
< 0.3 | > 10 | CCc1cn(-c2ccc(-c3nc(Nc4ccc5c(c4)CNC5=O)n(C)n3)cc2)c(C)n1 [Example 2]
< 0.3 | 3 to 10 | CCn1nc(-c2ccc(-c3ccc(C)cn3)cc2)nc1Nc1ccc2c(c1)CNC2=O [Example 27]
< 0.3 | 3 to 10 | CCn1nc(-c2ccc(-c3ccnc(C)c3)c(C)c2)nc1Nc1ccc2c(c1)CNC2=O [Example 26]
< 0.3 | 3 to 10 | CCn1nc(-c2ccc(-c3ccn(C)c3)c(C)c2)nc1Nc1cc2c(cc1C)C(=O)NC2C (stereo not drawn) [Example 129]
< 0.3 | > 10 | CCn1nc(-c2cc(C)c(-c3ccc(C)cn3)cc2C)nc1Nc1ccc2c(c1)C(C)NC2=O (stereo not drawn) [Example 133]
< 0.3 | 3 to 10 | CCn1nc(-c2ccc(-n3cnc(C4CC4)c3)c(F)c2)nc1Nc1cc2c(cc1C)C(=O)NC2C (stereo not drawn) [Example 82]
< 0.3 | 3 to 10 | CCn1nc(-c2ccc(-c3ccc(C4CC4)nc3)cc2)nc1Nc1cc2c(cc1F)C(=O)N[C@H]2C [Example 161]
